One assay relates to RS4-11. Kind of assay: Proliferation assay, CellTiter-Glo, 72 hour. The note with it: read-out: Inhibition of proliferation, RS4-11. It is filed as cell-based.
Another assay relates to MNNG-HOS Cl#5. In words: Proliferation assay, CellTiter-Glo, 72 hour. It is filed as cell-based. The conditions noted are these: osteosarcoma cell line, read-out: Inhibition of proliferation, MNNG-HOS Cl#5. A general note: In ATP-based viability assays light output follows the ATP content of the culture.
A further assay deals with RD-ES. Kind of assay: Proliferation assay, CellTiter-Glo, 72 hour. It is filed as cell-based. The conditions noted are these: Ewing's sarcoma cell line, read-out: Inhibition of proliferation, RD-ES.
For a further assay, the system named is MDA-MB231. Kind of assay: Proliferation assay, CellTiter-Glo, 72 hour. In kind it is cell-based. The note with it: read-out: Inhibition of proliferation, MDA-MB231.
For the next assay, the system named is MV4-11. In words: Proliferation assay, CellTiter-Glo, 72 hour. It is filed as cell-based. The note with it: read-out: Inhibition of proliferation, MV4-11.
For another assay, the system named is SAOS. Kind of assay: Proliferation assay, CellTiter-Glo, 72 hour. It is filed as cell-based. The conditions noted are these: osteosarcoma cell line, read-out: Inhibition of proliferation, SAOS.
A further assay relates to MCF7. In words: Proliferation assay, CellTiter-Glo, 72 hour. The conditions noted are these: read-out: Inhibition of proliferation, MCF7. It is filed as cell-based.
In assay [1] the test system is patient-derived chronic lymphocytic leukemia (CLL) isolates. Kind of assay: Cell death of patient-derived CLL isolates, Annexin V staining, 24 hour. In kind it is cell-based, human. The conditions noted are these: Homo sapiens, read-out: Pro-death signaling, average EC50 values. The procedure:
Clinical isolates of CLL were cultured with compounds of Formula (I) or flavopiridol and assessed for cell death after a 24 hour time course by Annexin V staining. […] Anti-proliferative effect was measured using cell titer glo analysis.
PBMCs freshly isolated from peripheral blood are seeded in 24 well plates at a volume of 0.5 ml and a concentration of 2×10^6 cells/ml. Compounds and controls are added to respective wells in a total volume of 2.5 μl. Plates are mixed gently and incubated approximately 24 hours at 37° C., 5% CO2. Apoptosis was measured in all cells from each well using the Annexin V: FITC Apoptosis Detection Kit I (BD Biosciences). Normalized % death was calculated as follows: [(% Dead Drug−% Dead DMSO)/(100%−% Dead DMSO)]×100

The test system of another assay is T47D. In words: Proliferation assay, CellTiter-Glo, 72 hour. The note with it: breast cancer cell line, read-out: Inhibition of proliferation, T47D. In kind it is cell-based.
The next assay relates to THP-1. Kind of assay: Proliferation assay, CellTiter-Glo, 72 hour. In kind it is cell-based. The note with it: read-out: Inhibition of proliferation, THP-1.
A further assay deals with 143B. In words: Proliferation assay, CellTiter-Glo, 72 hour. It is filed as cell-based. The conditions noted are these: osteosarcoma cell line, read-out: Inhibition of proliferation, 143B.
The test system of another assay is MCF10A. In words: Proliferation assay, CellTiter-Glo, 72 hour. The conditions noted are these: non-tumorigenic breast epithelial cell line, read-out: Inhibition of proliferation, MCF10A. It is filed as cell-based.
The next assay deals with A673. In words: Proliferation assay, CellTiter-Glo, 72 hour. In kind it is cell-based. The note with it: read-out: Inhibition of proliferation, A673.
A further assay relates to RNAP II occupancy. Kind of assay: RNAP II ChIP-seq in Jurkat cells. It is filed as cell-based, human. The conditions noted are these: 250 nM for 6 hours. The protocol:
After the indicated treatment time, cells were crosslinked for 10 minutes at room temperature by the addition of one-tenth of the volume of 11% formaldehyde solution (11% formaldehyde, 50 mM Hepes (pH 7.3), 100 mM NaCl, 1 mM EDTA (pH 8.0), 0.5 mM EGTA (pH 8.0)) to the growth media followed by two washes with PBS. Following the final PBS wash, supernatant was aspirated, and the cell pellet was flash frozen in liquid nitrogen. Frozen crosslinked cells were stored at −80° C.
50 μl of Dynal magnetic beads (Sigma) were blocked with 0.5% BSA (w/v) in PBS. Magnetic beads were bound with 5 μg of the indicated antibody. Antibodies used are as follows: Total RNAP II (Rpb1 N-terminus): Santa Cruz sc-899; CDK7: Bethyl A300-405A. Crosslinked cells were lysed with lysis buffer 1 (50 mM Hepes (pH 7.3), 140 mM NaCl, 1 mM EDTA, 10% glycerol, 0.5% NP-40, and 0.25% Triton X-100) and washed with lysis buffer 2 (10 mM Tris-HCl (pH 8.0), 200 mM NaCl, 1 mM EDTA (pH 8.0) and 0.5 mM EGTA (pH 8.0)). […]
Illumina sequencing libraries were generated, and data were processed according to Lin et al., Cell (2012) 151:56-67. […] These criteria preserved only reads that mapped uniquely to the genome with 1 or fewer mismatches. […]

A further assay relates to HL60. Kind of assay: Proliferation assay, CellTiter-Glo, 72 hour. In kind it is cell-based. The note with it: read-out: Inhibition of proliferation, HL60.
The next assay relates to SKBR3. In words: Proliferation assay, CellTiter-Glo, 72 hour. It is filed as cell-based. The conditions noted are these: read-out: Inhibition of proliferation, SKBR3.
In another assay the test system is SK-ES. Kind of assay: Proliferation assay, CellTiter-Glo, 72 hour. In kind it is cell-based. The conditions noted are these: Ewing's sarcoma cell line, read-out: Inhibition of proliferation, SK-ES.
A further assay concerns Hs822T. Kind of assay: Proliferation assay, CellTiter-Glo, 72 hour. In kind it is cell-based. The note with it: Ewing's sarcoma cell line, read-out: Inhibition of proliferation, Hs822T.
A further assay deals with Hs863T. Kind of assay: Proliferation assay, CellTiter-Glo, 72 hour. It is filed as cell-based. The note with it: Ewing's sarcoma cell line, read-out: Inhibition of proliferation, Hs863T.
The test system of another assay is hTERT-HME1. Kind of assay: Proliferation assay, CellTiter-Glo, 72 hour. In kind it is cell-based. The conditions noted are these: read-out: Inhibition of proliferation, hTERT-HME1.
In a further assay the target is MLK3 (Homo sapiens (Human), UniProt Q16584). In words: Life Technologies LanthaScreen Eu kinase assay, MLK3. It is filed as binding. The conditions noted are these: for IC50: read-out: Calculated IC50, MLK3.
MLK3, sequence (Q16584 whole entry): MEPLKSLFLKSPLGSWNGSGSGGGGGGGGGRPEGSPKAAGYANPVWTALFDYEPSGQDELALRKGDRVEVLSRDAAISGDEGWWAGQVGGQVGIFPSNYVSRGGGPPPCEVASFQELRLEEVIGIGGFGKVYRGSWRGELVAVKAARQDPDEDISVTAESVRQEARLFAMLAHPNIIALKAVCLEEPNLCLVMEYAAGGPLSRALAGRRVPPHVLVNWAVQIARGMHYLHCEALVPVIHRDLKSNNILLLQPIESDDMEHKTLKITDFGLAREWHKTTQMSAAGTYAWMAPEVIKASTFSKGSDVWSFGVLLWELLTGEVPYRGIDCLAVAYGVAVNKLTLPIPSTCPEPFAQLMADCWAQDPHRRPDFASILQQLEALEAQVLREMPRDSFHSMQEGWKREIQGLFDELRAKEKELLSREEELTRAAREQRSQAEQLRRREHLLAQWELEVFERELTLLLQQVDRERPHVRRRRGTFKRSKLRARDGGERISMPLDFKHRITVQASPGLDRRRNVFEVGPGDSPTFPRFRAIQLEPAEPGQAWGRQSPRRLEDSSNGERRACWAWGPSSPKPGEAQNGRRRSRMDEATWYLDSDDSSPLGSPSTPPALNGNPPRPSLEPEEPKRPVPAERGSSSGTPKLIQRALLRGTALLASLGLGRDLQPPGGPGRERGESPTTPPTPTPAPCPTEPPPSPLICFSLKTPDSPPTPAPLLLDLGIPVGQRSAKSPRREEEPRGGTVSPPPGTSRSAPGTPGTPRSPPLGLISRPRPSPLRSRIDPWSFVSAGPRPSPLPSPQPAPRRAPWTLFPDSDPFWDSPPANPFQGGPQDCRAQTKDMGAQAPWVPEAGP
Another assay concerns the target IRAK1 (Homo sapiens (Human), UniProt P51617). In words: Life Technologies Adapta kinase assay, IRAK1. It is filed as biochemical. The conditions noted are these: superscript b (footnote not given; tested at 100 nM and 1 μM).
Assay [2] deals with T1, CDK7 (Homo sapiens (Human), UniProt P50613). Kind of assay: In vitro inhibitory activity against CDK7 (Table 1). In kind it is biochemical. The protocol:
In vitro kinase assays with immunoprecipitated proteins (or recombinant CAK complexes) were performed as follows. Kinase reactions were performed in 25 μL of final volume of reaction buffer (50 mM Hepes, pH 7.5, 150 mM NaCl, 10 mM MgCl2, 5% glycerol, 25 μM ATP, and 10 μCi of [γ-32P]ATP). Each reaction contained 1 μg of RNAP II. Incubation was at 30° C. for 30-45 min. Reactions were terminated by addition of 5 μL of 5×SDS-PAGE sample buffer and incubated at 95° C. for 5 min. Reactions were analyzed by SDS-PAGE, and the dried gel was exposed to film or PhosphorImager plate.
Target sequence in this assay (P50613 whole entry, looked up): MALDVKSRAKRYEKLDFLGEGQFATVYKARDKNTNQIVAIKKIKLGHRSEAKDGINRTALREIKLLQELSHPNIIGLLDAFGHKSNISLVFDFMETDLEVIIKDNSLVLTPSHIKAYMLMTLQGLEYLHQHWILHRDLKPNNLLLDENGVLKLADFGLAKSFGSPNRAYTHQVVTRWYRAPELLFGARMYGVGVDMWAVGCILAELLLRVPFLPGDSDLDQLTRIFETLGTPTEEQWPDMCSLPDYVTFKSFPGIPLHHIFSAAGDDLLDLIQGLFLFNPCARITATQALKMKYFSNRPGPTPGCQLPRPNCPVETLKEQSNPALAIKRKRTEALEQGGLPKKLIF
Target sequence in this assay (P51946 whole entry partner, looked up): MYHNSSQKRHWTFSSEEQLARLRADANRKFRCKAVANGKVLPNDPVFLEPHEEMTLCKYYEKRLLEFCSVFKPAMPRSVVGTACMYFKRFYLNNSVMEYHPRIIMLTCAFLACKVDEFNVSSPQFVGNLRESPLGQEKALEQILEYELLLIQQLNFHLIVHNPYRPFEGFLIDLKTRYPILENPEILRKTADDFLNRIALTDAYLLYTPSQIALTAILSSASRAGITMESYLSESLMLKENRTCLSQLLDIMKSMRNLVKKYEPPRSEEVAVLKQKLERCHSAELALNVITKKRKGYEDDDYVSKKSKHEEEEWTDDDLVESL
Target sequence in this assay (P51948 whole entry partner, looked up): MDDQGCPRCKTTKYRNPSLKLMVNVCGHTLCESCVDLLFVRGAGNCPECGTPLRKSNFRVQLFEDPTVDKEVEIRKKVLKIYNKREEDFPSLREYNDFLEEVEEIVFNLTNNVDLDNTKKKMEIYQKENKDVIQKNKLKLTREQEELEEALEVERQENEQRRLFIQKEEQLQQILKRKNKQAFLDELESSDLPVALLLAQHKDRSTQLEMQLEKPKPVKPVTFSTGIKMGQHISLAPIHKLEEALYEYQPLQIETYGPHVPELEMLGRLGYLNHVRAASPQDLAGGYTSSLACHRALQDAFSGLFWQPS

The next assay has as its system cyclin K. Kind of assay: Compound I-49 pull down from Loucy cellular lysates. In kind it is binding. The protocol:
(§1) However, cyclin K, which is known to bind to CDK12/13, did interact with I-49. […] Lysates were then probed with I-49. Precipitated proteins were washed and probed with antibodies as shown.
(§2) Following the treatment, the cells were washed 2-fold with cold PBS and then lysed in the following lysis buffer: 50 mM TrisHCl pH 8.0, 150 mM NaCl, 1% NP-40, 5 mM EDTA, 1 mM DTT, and protease/phosphatase cocktails. Following clearance, the lysates were treated with compound I-49 for pulldown (or CDK7 antibody for IP) overnight at 4° C. The lysates were then incubated with streptavidin agarose for pulldown (or Protein G Agarose for IP) for an additional 2-3 hours at 4° C. Agarose beads were washed 5 times with a lysis buffer and then boiled in 2X SDS for 10 minutes at 95° C.

For assay [3], the system named is CDK1, CDK2, CDK4, and CDK6. Described as above. It is filed as binding. The procedure:
as §1, §2

The target in assay [4] is T1, CDK7. The description is as above. In kind it is binding. The conditions noted are these: 1 μM, 4° C., 12 hours. The protocol: Precipitated proteins were washed and probed for CDK7.
as §2
Target sequence in this assay (P50613 whole entry): as the sequence (P50613 whole entry, looked up) above

The target of another assay is CDK5/p25 (Homo sapiens (Human), UniProt Q00535). Kind of assay: Life Technologies Z'-Lyte kinase assay, CDK5/p25. In kind it is biochemical. The note with it: read-out: Calculated IC50, CDK5/p25.
CDK5/p25, sequence (Q00535 whole entry): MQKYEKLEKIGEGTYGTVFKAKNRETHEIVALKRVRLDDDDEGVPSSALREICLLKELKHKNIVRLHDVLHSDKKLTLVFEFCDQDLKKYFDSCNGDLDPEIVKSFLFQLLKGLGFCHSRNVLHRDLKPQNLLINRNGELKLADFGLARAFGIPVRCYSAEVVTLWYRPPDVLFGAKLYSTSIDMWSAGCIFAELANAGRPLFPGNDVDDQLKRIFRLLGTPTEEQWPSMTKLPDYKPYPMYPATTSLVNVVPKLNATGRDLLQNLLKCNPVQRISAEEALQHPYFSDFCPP
CDK5/p25, sequence (Q15078 99-307 partner): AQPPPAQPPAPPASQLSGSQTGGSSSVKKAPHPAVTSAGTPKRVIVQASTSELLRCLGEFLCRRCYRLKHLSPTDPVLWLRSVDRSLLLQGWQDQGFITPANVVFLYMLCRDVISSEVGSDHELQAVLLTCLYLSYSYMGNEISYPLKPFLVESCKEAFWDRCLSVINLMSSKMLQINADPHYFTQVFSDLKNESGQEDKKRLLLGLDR
The next assay has as its system Jurkat. In words: Jurkat (proliferation, CellTiter-Glo). It is filed as cell-based. The conditions noted are these: Homo sapiens, Jurkat; read-out: Calculated IC50, Jurkat.

The structures appear in SMILES notation. Read-outs that look alike come from different tables or passages of the source.

IRAK1, sequence (P51617 whole entry): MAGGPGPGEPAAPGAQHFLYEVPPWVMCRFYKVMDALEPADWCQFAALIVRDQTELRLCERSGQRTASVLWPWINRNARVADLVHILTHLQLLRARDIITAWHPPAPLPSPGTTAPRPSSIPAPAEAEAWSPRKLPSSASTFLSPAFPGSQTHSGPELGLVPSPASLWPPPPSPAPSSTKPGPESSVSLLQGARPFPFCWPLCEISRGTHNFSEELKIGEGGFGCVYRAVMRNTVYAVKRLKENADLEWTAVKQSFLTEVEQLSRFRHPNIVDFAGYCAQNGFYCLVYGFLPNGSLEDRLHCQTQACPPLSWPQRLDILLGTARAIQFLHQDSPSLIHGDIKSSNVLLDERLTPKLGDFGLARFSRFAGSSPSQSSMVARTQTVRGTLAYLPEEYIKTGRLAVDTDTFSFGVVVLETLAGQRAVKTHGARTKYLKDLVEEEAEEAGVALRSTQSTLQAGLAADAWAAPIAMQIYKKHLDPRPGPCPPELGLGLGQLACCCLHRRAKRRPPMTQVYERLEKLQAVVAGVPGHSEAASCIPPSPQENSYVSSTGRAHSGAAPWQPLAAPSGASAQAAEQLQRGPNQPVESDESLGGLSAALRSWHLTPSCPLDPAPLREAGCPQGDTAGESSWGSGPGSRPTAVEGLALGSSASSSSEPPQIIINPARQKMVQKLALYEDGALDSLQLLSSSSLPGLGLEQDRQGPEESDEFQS

By EC50 is commonly meant the concentration giving half of the maximal effect. With `CN1CC[C@H](c2c(O)cc(O)c3c(=O)cc(-c4ccccc4Cl)oc23)[C@H](O)C1` [Flavopiridol, flavopiridol, reference compound], the IC50 in the assay on RS4-11 (Homo sapiens, RS4-11, blood cancer cell line) was less than 500 nM; with MNNG-HOS Cl#5, 500 to 5000 nM; in the assay with RD-ES (RD-ES), less than 500 nM; in the assay with MDA-MB231 (Homo sapiens, MDA-MB-231, breast cancer cell line), less than 500 nM; in the assay on MV4-11 (Homo sapiens, MV4-11, blood cancer cell line), less than 500 nM; in the assay on SAOS, less than 500 nM. The IC50 was 500 to 5000 nM in the assay on MCF7 (Homo sapiens, MCF7, breast cancer cell line); greater than 5000 nM in the assay with T47D (Homo sapiens, T47D); less than 500 nM with THP-1 (Homo sapiens, THP-1, blood cancer cell line); 500 to 5000 nM with 143B (Homo sapiens, 143B); less than 500 nM in the assay with MCF10A (Homo sapiens, MCF-10A); less than 500 nM in the assay on A673 (Homo sapiens, A673, Ewing's sarcoma cell line). Besides, the IC50 in the assay with HL60 (Homo sapiens, HL-60, blood cancer cell line) is less than 500 nM; with SKBR3 (Homo sapiens, SK-BR-3, breast cancer cell line) it was less than 500 nM; in the assay with SK-ES, less than 500 nM; in the assay with Hs822T it was greater than 5000 nM; with Hs863T, greater than 5000 nM; in the assay with hTERT-HME1 (hTERT-HME1, immortalized normal mammary epithelial cell line), less than 500 nM. Moreover, the half-maximal effective concentration (EC50) in assay [1] was less than 200 nM. Besides, the “RNAP II occupancy at the promoter proximal pause site” value with RNAP II occupancy is reported as “unaffected”.

With `Cc1ccc(Nc2ncc(C)c(-c3c[nH]c4ccccc34)n2)cc1NC(=O)c1ccc(NC(=O)/C=C/CN(C)C)cc1` [Formula I-20], the IC50 is less than 500 nM in the assay with RS4-11 (blood cancer cell line); 500 to 5000 nM in the assay on MNNG-HOS Cl#5; less than 500 nM with RD-ES; less than 500 nM with MDA-MB231 (breast cancer cell line); less than 500 nM in the assay with MV4-11 (blood cancer cell line); less than 500 nM in the assay on SAOS. In addition, the IC50 was less than 500 nM in the assay with MCF7 (breast cancer cell line); less than 100 nM on MLK3; 500 to 5000 nM with T47D; less than 500 nM in the assay on THP-1 (blood cancer cell line); greater than 5000 nM in the assay with 143B; less than 500 nM with MCF10A. Moreover, the IC50 in the assay with A673 (Ewing's sarcoma cell line) was less than 500 nM; in the assay with HL60 (blood cancer cell line), less than 500 nM; with SKBR3 (breast cancer cell line), 500 to 5000 nM; at CDK7 [2] it was 20.9 nM; in the assay on SK-ES, less than 500 nM; in the assay with Hs822T, less than 500 nM. In addition, the IC50 with Hs863T and with hTERT-HME1 (immortalized normal mammary epithelial cell line) was less than 500 nM throughout. For the same molecule, the “Percent inhibition, MLK3^b” value at MLK3 (superscript b (footnote not given; tested at 100 nM and 1 μM)) is reported as “C (less than 50% inhibition)”. Moreover, on IRAK1, the “Percent inhibition, IRAK1^b” value was “C (less than 50% inhibition)”.

For `CN(C/C=C/C(=O)Nc1ccc(C(=O)Nc2cccc(Nc3ncc(Cl)c(-c4c[nH]c5ccccc45)n3)c2)cc1)CCCNC(=O)NCCOCCOCCOCCNC(=O)CCCCC1SCC2NC(=O)NC21` (stereo not drawn) [Formula I-49], the “Interaction with cyclin K” value with cyclin K is on record as “did interact”. Besides, the “Interaction with CDK1, CDK2, CDK4, and CDK6” value in assay [3] was “do not interact”. Further, the “Pull down of CDK7 from cellular lysates” value at CDK7 [4] is “pulls down CDK7”.

Turning to `CN(C)C/C=C/C(=O)Nc1ccc(C(=O)Nc2cccc(Nc3ncc(C#N)c(-c4c[nH]c5ccccc45)n3)c2)cc1` [Formula I-53, (E)-N-(3-(5-cyano-4-(1H-indol-3-yl)pyrimidin-2-ylamino)phenyl)-4-(4-(dimethylamino)but-2-enamido)benzamide], the results for the IC50 at CDK5/p25, at MLK3 and with Jurkat were 100 to 1000 nM, less than 100 nM and less than 100 nM, respectively.

The values above are taken from patent US10787436B2, “Inhibitors of cyclin-dependent kinase 7 (CDK7)” (Dana-Farber Cancer Institute, Inc., priority 2012, dated 2020).
